Laboratory results: patent US9593149B2, “Amylin and calcitonin receptor agonist” (Novo Nordisk A/S, priority 2014, dated 2017)
Peptide text beside a SMILES is read from it. * marks the point of attachment. C18 diacid = O=C(O)CCCCCCCCCCCCCCCCC(=O)*

Columns and labels:
[1] = Assay (IX) pK, T½ in mini-pig; type: in vivo, Göttingen mini-pigs; details: i.v.
Outline: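 Female Göttingen mini-pigs (5–12 months, 15–35 kg, fed freely) received a single i.v. dose of approximately 5 nmol/kg via central venous catheter, typically n=3. Plasma was sampled from pre-dose to 240 h (sometimes 288 h) and quantified by LC-MS. T½ was derived by non-compartmental analysis from the terminal log-linear slope (ln2/λz).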

[2] = Assay (XVII) T½ and subcutaneous bioavailability in Beagle dogs; type: in vivo
Procedure: The area under the plasma concentration versus time curve (AUC, [time×concentration]) was calculated (by the Pharsight programme) after both subcutaneous administration and intravenous administration, typically until 240-288 hours post dosing, or until last measured concentration. The AUC was calculated by extrapolating to infinity and dose normalized. The absolute bioavailability (F %) was then calculated based on the dose-corrected AUC values, namely as AUC/Dsc divided by AUC/Div×100, where Dsc is the subcutaneous dose per kg, and Div the dose per kg given intravenously. Assay (XVII)—Determination of T½ and Subcutaneous Bioavailability in Beagle Dogs […]
By protraction is meant the prolongation of the time in the body and thereby the time of action of the mimylin derivatives. This was done in PK studies, where the terminal half-life of the derivative in question was determined following i.v. administration. By terminal half-life is generally meant the period of time it takes to halve a certain plasma concentration, measured after the initial distribution phase. […]
The plasma concentration of the respective mimylin derivative was analysed using LC-MS. Individual plasma concentration-time profiles were analysed by a non-compartmental model in Phoenix WinNonlin version 6.3 (Pharsight Inc., Mountain View, Calif., USA). […]

PK mini pig iv T½ [1]: 85 h
Subcutaneous bioavailability (%) ([2]; Beagle dogs): 98%
Beagle dogs iv PK, t½ ([2]; i.v., harmonic mean, n = 2): 95 h
Structure (SMILES): CC(C)C[C@H](NC(=O)[C@H](C)NC(=O)[C@H](C)NC(=O)[C@@H](NC(=O)[C@H](CO)NC(=O)[C@H](CC(C)C)NC(=O)[C@H](CCC(=O)O)NC(=O)[C@H](CO)NC(=O)[C@H](C)NC(=O)[C@H](CCC(=O)O)NC(=O)CCCCCCCCCCCCCCCCC(=O)O)[C@@H](C)O)C(=O)NCC(=O)N[C@@H](CCCNC(=N)N)C(=O)N[C@@H](CC(C)C)C(=O)N[C@@H](CO)C(=O)N[C@@H](C)C(=O)N[C@@H](CCC(=O)O)C(=O)N[C@@H](CC(C)C)C(=O)N[C@@H](Cc1cnc[nH]1)C(=O)N[C@@H](CCC(=O)O)C(=O)N[C@@H](CC(C)C)C(=O)N[C@@H](C)C(=O)N[C@H](C(=O)N[C@@H](CC(C)C)C(=O)N1CCC[C@H]1C(=O)N[C@@H](CCCNC(=N)N)C(=O)N[C@H](C(=O)N[C@@H](CCC(=O)O)C(=O)N[C@H](C(=O)NCC(=O)N1CCC[C@H]1C(=O)N[C@@H](CCC(=O)O)C(=O)N[C@@H](CO)C(=O)N1CCC[C@H]1C(N)=O)[C@@H](C)O)[C@@H](C)O)[C@@H](C)O [Ex. #2, [N-terminal(C18 diacid)]mimylin] ({C18 diacid}-EASELSTAALGRLSAELHELATLPRTETGPESP-NH2)
